From PMC9968717, “Breakthrough: a first-in-class virtual simulator for dose optimization of ACE inhibitors in translational cardiovascular medicine” (Scientific Reports, 2023)
Where a name gives a salt, the structure may show the parent alone.

What was measured:
[1] = tested on: ACE activity; settings: dogs, cited from earlier work; for Duration of ACE suppression: single dose 0.5 mg/kg
[2] = Animal safety monitoring of study dogs given oral benazepril; assay type: in vivo; settings: healthy beagles; benazepril PO 0.125 mg/kg q12h, 0.25 mg/kg q12h, 0.5 mg/kg q24h (crossover)
From the text: All study dogs received all oral doses of benazepril as intended. Dogs were monitored for adverse effects associated with benazepril labeling as well those associated with general animal welfare e.g., vomiting, diarrhea, inappetence, weakness/hypotension, fatigue, incoordination, hypercreatininemia.
Nine purpose-bred laboratory beagles (5 castrated males and 4 spayed females), 40–42 months old, weighing 9.0–13.5 kg were randomized based on body weight and sex into three oral dosing groups of benazepril. Systemic and cardiovascular health of all dogs was confirmed prior to the study with physical examination, routine laboratory screening (complete blood count, serum biochemical analysis), blood pressure measurement, and echocardiography.
This 35-day prospective study was divided into three periods with three different benazepril dosing groups: (A) 0.125 mg/kg q12hr PO, (B) 0.25 mg/kg q12hr PO, and (C) 0.5 mg/kg q24hr PO. All dogs received all treatments using a […] crossover (ABC/BCA/CAB) design. Dogs were sampled in the same order at each time point and exact time of sampling was recorded. […]
Venous blood samples were collected from an external jugular or cephalic vein with a 1 inch, 20-gauge or 22-gauge needle attached to a 6 mL syringe. […] Samples for complete blood counts or serum chemistry panels were analyzed by the Iowa State Clinical Pathology Laboratory.

[3] = dog, in vivo; cited from earlier work
[4] = target: T1, ACE (Canis lupus familiaris, UniProt A0A8I3S3I6); assay: Michaelis–Menten model of ACE inhibition by benazeprilat within the QSP model fit; assay type: in vivo, dogs (beagles); settings: population estimate, beagles
T1 construct: from tissue; host or cells: living healthy beagle dogs; ACE in free circulation (plasma) and in tissue
T1 sequence (A0A8I3S3I6 31-1241): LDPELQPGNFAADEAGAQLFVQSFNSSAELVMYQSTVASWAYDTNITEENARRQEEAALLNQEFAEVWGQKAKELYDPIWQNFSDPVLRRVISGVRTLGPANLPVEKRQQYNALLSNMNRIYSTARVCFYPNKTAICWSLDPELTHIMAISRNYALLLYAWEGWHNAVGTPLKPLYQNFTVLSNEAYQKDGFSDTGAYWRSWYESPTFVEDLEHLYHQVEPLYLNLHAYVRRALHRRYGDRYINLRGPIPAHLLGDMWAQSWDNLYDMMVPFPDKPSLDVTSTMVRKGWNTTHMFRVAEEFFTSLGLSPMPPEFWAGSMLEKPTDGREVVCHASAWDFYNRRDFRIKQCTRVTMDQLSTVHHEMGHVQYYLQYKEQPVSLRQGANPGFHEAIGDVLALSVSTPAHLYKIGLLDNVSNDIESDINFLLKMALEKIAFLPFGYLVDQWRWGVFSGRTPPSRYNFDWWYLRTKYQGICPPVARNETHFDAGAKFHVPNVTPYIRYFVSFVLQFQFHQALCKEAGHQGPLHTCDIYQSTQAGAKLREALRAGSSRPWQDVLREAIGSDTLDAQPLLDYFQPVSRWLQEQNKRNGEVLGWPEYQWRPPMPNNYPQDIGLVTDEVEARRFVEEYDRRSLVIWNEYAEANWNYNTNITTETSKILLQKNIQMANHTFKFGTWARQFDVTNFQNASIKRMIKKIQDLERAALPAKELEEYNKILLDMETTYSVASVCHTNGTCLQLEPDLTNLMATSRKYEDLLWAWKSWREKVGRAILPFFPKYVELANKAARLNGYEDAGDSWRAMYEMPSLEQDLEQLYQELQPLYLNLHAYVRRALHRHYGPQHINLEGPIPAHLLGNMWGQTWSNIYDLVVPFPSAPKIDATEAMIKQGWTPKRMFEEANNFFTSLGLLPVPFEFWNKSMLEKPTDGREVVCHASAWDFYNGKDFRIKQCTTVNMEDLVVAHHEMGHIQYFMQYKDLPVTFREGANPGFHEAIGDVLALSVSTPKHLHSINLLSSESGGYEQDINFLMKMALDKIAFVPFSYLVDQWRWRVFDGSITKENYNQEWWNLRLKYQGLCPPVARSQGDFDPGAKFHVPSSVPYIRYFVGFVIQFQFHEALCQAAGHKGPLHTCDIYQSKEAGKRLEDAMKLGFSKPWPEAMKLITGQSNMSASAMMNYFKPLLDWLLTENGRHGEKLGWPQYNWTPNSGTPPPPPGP
From the text: Benazeprilat primary mechanism of action is inhibiting ACE to prevent the catalysis of AngI into AngII. To account for this mechanism, a logistic saturation model was first implemented. […] The distribution of ACE across tissue (ts) and free circulation (fr) was also considered. The nomenclature used throughout Eq. (3) is consistent with previous descriptions of the Michaelis–Menten model[26].3 E˙fr=-k-1·Efr·Sfr+k1·ESfr-k-3·Efr·Ifr+k3·EIfr+k2·ESfrE˙Sfr=k-1·Efr·Sfr-k1·ESfr-k2·ESfrE˙Ifr=k-3·Efr·Ifr-k3·EIfrE˙ts=-k-1·Ets·Sts+k1·ESts-k-3·Ets·Its+k3·EIts+k2·EStsE˙Sts=k-1·Ets·Sts-k1·ESts-k2·EStsE˙Its=k-3·Ets·Its-k3·EIts
Figure 3 Detailed model diagram. Detailed diagram of the final model structure. […] A Michaelis–Menten kinetic model of inhibitor, substrate, and enzyme interaction was used to describe the competitive inhibition of ACE by benazeprilat. k3 and k-3 were the parameters governing ACE-benazeprilat (enzyme-inhibitor) association and dissociation, while k1 and k-1 determined the rate of ACE-angiotensin (enzyme–substrate) association and dissociation. k2 controlled the production rate of angiotensin II from angiotensin I via ACE. […]
The recorded data (yij) were imported into Monolix […] (Lixoft, France) and used to estimate population parameters (μ) and variance via the stochastic approximation expectation maximization algorithm (SAEM)[46]. […]

[5] = NLME/QSP model fit of plasma benazeprilat pharmacokinetics after oral benazepril; assay type: in vivo, dogs (beagles); settings: beagle, dog, population estimate, beagles, read-out: Clearance rate of benazeprilat (ClI), fixed effect (converted)
Experimental: The PK portion of the base model was a conventional 2-compartment mammillary model with saturable exchange between the central and peripheral compartments. Building on this initial model, several modifications of the PK structure were evaluated. First, several standard compartment variations were tested i.e., using 1-, 2-, or 3-compartment disposition functions. Overall, a 2-compartment PK model outperformed the other candidate models based on the precision of individual parameters and overall quality of fit. Second, non-specific (low affinity, high capacity) binding of benazeprilat to plasma proteins was represented by a 3rd compartment within the central compartment, i.e., representing the free circulation of benazeprilat. The volume of the non-specific binding compartment (Vns) is a representation of the relative binding capacity of benazeprilat which is distributed in plasma but is not freely circulating or interacting with ACE. […] As is typical, quantity of benazeprilat passed between compartments is called Im, n, for inhibitor, where indexes m and n represent origin and destination compartments, respectively. […] Doses are administered in benazepril hcl, but are measured as the metabolite-benazeprilat. […] Dogs were sampled in the same order at each time point and exact time of sampling was recorded. […] The benazepril dose was calculated to the nearest 1.25 mg increment. […]

[6] = single PO dose, ref 2 (b6), ref 17 King et al.

| SMILES | Duration of ACE suppression [1] | Adverse effects [2] | Serial complete blood counts and chemistry panels: hematologic or biochemical abnormalities [2] | Dosage from which ACE inhibition in plasma was independent of dosage [1, 6] | Duration of suppression of ACE activity [1, 6] | Dose up to which safety has been established [3] | Rate of ACE-benazeprilat dissociation in vivo, scaled (k3s), fixed effect [4] | clearance [5] |
| --- | --- | --- | --- | --- | --- | --- | --- | --- |
| CCOC(=O)[C@H](CCc1ccccc1)N[C@@H](C)C(=O)N1CCC[C@H]1C(=O)O [enalapril] | < 12 h | – | – | – | – | – | – | – |
| CCOC(=O)[C@H](CCc1ccccc1)N[C@H]1CCc2ccccc2N(CC(=O)O)C1=O [benazepril, Benazepril hydrochloride] | < 12 h | No adverse effects were observed | no evidence of hematologic or biochemical abnormalities | ≥ 0.25 mg/kg | up to 24 h | up to 1 mg/kg q24h | – | – |
| O=C(O)CN1C(=O)[C@@H](N[C@@H](CCc2ccccc2)C(=O)O)CCc2ccccc21 [benazeprilat] | – | – | – | – | – | – | 7.0 s⁻¹ | 455 mL/min |
